Laboratory results from patent US8969395B2, “Triterpenoid derivatives useful as antiproliferative agents” (Universidade de Coimbra, priority 2009, dated 2015).

Legend:
[1] = test system: Chang liver (normal liver cell line); assay: Apoptosis, Annexin V-FITC/PI FACS, Chang liver; format: cell-based, human; conditions: at the IC80 found for HepG2, FIG. 8
Method: (§1) Briefly, the same number of HepG2, HeLa, Jurkat and Chang liver cells as in the cell cycle assay were treated with compounds 20, 44, 46 and betulinic acid 2, as described above. Cells were collected washed once in ice-sold binding buffer (10 mM HEPES/NaOH, pH 7.4, 140 mM NaCl, 2.5 mM CaCl2) and ressuspended in the same buffer (95 μl) at a maximum, of 8×10^5 cells/ml. Annexin V-FITC conjugate (1 μg/ml) was added and incubated for 30 min at room temperature in darkness. Just before FACS analysis, cells were stained with 20 μl of […]. Approximately 1×10^4 cells were analysed for each histogram and experiments were performed three times with triplicates per experiment. FACS analysis using Annexin V-FITC staining and PI accumulation was used to differentiate early apoptotic cells (Annexin V^+ and PI^−) from necrotic or late apoptotic cells (Annexin V^+ and PI^+). […] In comparison with untreated controls, compound 44 treatment of HepG2 cells generated apoptosis in 53% of cells (42% of early apoptosis and 11% of late apoptosis), compound 46 generated apoptosis in 38% of cells (28% of early apoptosis plus 10% late apoptosis) and compound 20 induced apoptosis in 29% of cells (22% of early apoptosis plus 7% late apoptosis) (FIG. 8).

HeLa cells = assay: Apoptosis, Annexin V-FITC/PI FACS, HeLa; format: cell-based, human; conditions: at IC50, 72 h, FIG. 8
Method: as §1, with “Assessment of apoptosis was performed 72 h after treatment with derivatives at their IC50. Briefly,” for “Briefly,”

Jurkat cells = assay: Cell cycle analysis by flow cytometry (FACS, PI), Jurkat; format: cell-based, human; conditions: compound at its IC50, 72 h
Method: The effects on the cell cycle of some of these compounds were assessed through flow cytometry by using a fluorescence-activated cell sorter (FACS) (Table 5 below). For this assay 2.3×10^5 HepG2 cells/well, 2.9×10^4 HeLa cells/well, 1.6×10^5 Jurkat cells/well and 1.4×10^5 Chang liver cells/well were plated in 6 well plates with 2 ml of medium. The number of cells was determined by the relationship number of cells/area wells, considering the number of cells that were cultured in 96-well plates. […] Chang liver cells were incubated with compounds 20, […] at concentrations corresponding to the IC80 determined for HepG2 at 72 h. Following 72 h. of incubation, cells were harvested by mild trypsinization, collected by centrifugation and stained in ice-cold Tris-buffered saline (TBS), containing 1 mg/ml PI, 10 mg/ml RNAse free of DNAase and 0.1% Igepal CA-630 for 1 h at 4° C. FACS analysis was carried out at 488 nm in an Epics XL flow cytometer (Coulter Corporation, Hialeah, Fla.). Data from 8×10^3 cells were collected and analyzed using Multicycle program (Phoenix Flow Systems, San Diego, Calif.). All experiments were performed three times with three replicates per experiment. […] To explore the selectivity of the effect on tumor cells, we also tested compounds 20, 44 and 46 in a non-malignant cell line. Chang liver cells were treated with the compounds at the IC80 values determined for HepG2 after 72 h of incubation and no effect was observed, indicating a selective effect of these agents (Table 5 below).

HepG2 cells = assay: Apoptosis, Annexin V-FITC/PI FACS, HepG2; format: cell-based, human; conditions: HepG2, at IC50, 72 h; for effectiveness at inducing apoptosis: FIG. 8; for apoptosis (% of cells, early plus late): in comparison with untreated controls
Method: as §1, with “Assessment of apoptosis was performed 72 h after treatment with derivatives at their IC50. Briefly,” for “Briefly,”

[2] = test system: HeLa (human cervical adenocarcinoma); assay: Cytotoxic activity, MTT assay, HeLa; format: cell-based; conditions: 72 h, mean ±SD

| SMILES | apoptosis induction in normal liver cell line [1] | effectiveness at inducing apoptosis (HeLa cells) | Phase of cell cycle (% of cells) G0/G1 (Jurkat cells) | Phase of cell cycle (% of cells) G2/M (Jurkat cells) | Phase of cell cycle (% of cells) S (Jurkat cells) | early apoptosis (Annexin V+ and PI-) (HepG2 cells) | late apoptosis (Annexin V+ and PI+) (HepG2 cells) | effectiveness at inducing apoptosis (HepG2 cells) | apoptosis (% of cells, early plus late) (HepG2 cells) | IC50 [2] |
| --- | --- | --- | --- | --- | --- | --- | --- | --- | --- | --- |
| C=C(C)[C@@H]1CC[C@]2(CO)CC[C@]3(C)[C@H](CC[C@@H]4[C@@]5(C)CC[C@H](OC(=O)n6ccnc6)C(C)(C)[C@@H]5CC[C@]43C)[C@@H]12 [Compound 20, 28-hydroxy-lup-20(29)-en-3β-yl-1H-imidazole-1-carboxylate] | no effect | extremely effective | 48.6 ± 4.4 % of cells | 15.8 ± 2.1 % of cells | 35.6 ± 3.1 % of cells | 22% | 7% | extremely effective | 29 % of cells | 3 ± 0.2 µM |
| C=C(C)[C@@H]1CC[C@]2(C(=O)n3ccnc3)CC[C@]3(C)[C@H](CC[C@@H]4[C@@]5(C)CCC(=O)C(C)(C)[C@@H]5CC[C@]43C)[C@@H]12 [Compound 44, 28-(1H-imidazol-1-yl)-lup-20(29)-en-3,28-dione] | no effect | most effective | 52.7 ± 0.5 % of cells | 20.8 ± 1.1 % of cells | 26.6 ± 0.9 % of cells | 42% | 11% | most effective | 53 % of cells | 2 ± 0.3 µM |
| C=C(C)[C@@H]1CC[C@]2(C(=O)n3ccnc3)CC[C@]3(C)[C@H](CC[C@@H]4[C@@]5(C)C=CC(=O)C(C)(C)[C@@H]5CC[C@]43C)[C@@H]12 [Compound 46, 28-(1H-imidazol-1-yl)-lup-1,20 (29)-dien-3,28-dione] | no effect | extremely effective | 49.6 ± 2.6 % of cells | 20.7 ± 2.4 % of cells | 29.8 ± 0.8 % of cells | 28% | 10% | extremely effective | 38 % of cells | 3 ± 0.2 µM |
